Source: patent publication EP1579856A1 (LABORATOIRES BESINS INTERNATIONAL, priority 2004, dated 2005)
Where two headings read alike, the source gives them in different places. Marks after values point to notes of the source that are not given here. One block for each molecule: values may come before it.

Assays:
[1] = clinical; set-up: species or system women; conditions: in vivo
Description: At the end of a menstrual cycle, each patient received a single dose, after which serial blood samples were collected at 0, 0.5, 1, 1.5, 2, 3, 4, 6, 12, 18, 24, 36, 48, and 72 hours.

[2] = in vivo
Description: Each participant applied the gel daily for the duration of two menstrual cycles.
On the first day of the following menstruation, treatment, which consisted of daily application of the gel over two menstrual cycles, began. Blood samples were collected 24 hours following the morning application of gel on days 7, 20 and 25 of the first and second cycles. On the last day of administration, day 25 of the second menstrual cycle, serial blood samples were collected prior to application and at 0.5, 1, 1.5, 2, 3, 4, 6, 12, 18, 24, 36, 48, and 72 hours after application of the gel.

[3] = in vivo; remark: listed apart in the source
Description: (§1) The patients received [^3H]-labeled drug applied directly on the affected breasts at specified intervals ranging from 12 hours to 7 days before surgery to excise diseased tissue. Breast tissue from three regions: the tumor, tissue immediately surrounding the tumor, and normal tissue, was excised and immediately frozen in liquid nitrogen. Additionally, plasma and urine samples were obtained at scheduled intervals and frozen until analysis.

[4] = in vivo; remark: listed apart in the source
Description: as §1

[5] = in vivo; remark: listed apart in the source
Description: as §1

[6] = target: T1, estrone sulphatase (Homo sapiens, UniProt P08842); conditions: mammary cancer cell lines; cited from earlier work
T1 construct: estrone sulphatase activity in mammary cancer cell lines; endogenous in cells
T1 sequence (P08842 22-583): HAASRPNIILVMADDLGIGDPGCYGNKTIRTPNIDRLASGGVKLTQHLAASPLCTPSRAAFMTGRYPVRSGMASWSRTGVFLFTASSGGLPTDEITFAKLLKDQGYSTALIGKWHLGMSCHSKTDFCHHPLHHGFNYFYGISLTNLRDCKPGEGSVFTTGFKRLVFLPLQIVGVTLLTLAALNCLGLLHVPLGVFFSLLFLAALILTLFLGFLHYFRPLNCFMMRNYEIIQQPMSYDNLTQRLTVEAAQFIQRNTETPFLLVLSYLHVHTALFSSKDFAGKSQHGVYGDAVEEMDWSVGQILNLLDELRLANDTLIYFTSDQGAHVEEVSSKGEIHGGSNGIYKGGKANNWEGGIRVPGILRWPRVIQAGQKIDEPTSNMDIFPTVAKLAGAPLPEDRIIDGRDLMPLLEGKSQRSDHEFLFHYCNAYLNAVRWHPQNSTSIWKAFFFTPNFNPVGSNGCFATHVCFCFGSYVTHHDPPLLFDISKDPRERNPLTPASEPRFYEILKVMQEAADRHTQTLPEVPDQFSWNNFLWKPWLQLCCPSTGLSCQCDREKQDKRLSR

[7] = percutaneous dose of 1 mg/breast/day; cited from earlier work
[8] = Group 2: 4-OHT gel (20 mg/100 g) 0.5 mg/day, both breasts, 3-4 weeks; n=5; cited from earlier work
[9] = test system: estrogen receptors; conditions: more affinity than tamoxifen; cited from earlier work
[10] = test system: rat liver; conditions: in vivo; cited from earlier work
[11] = Example 1 follow-up study: radioactivity and metabolites in blood
Description: as §1

[12] = test system: normal human epithelial breast cells; conditions: more than Z-tamoxifen; cited from earlier work
[13] = cited from earlier work
[14] = test system: p53(-) normal human mammary epithelial cells; conditions: cited from earlier work
[15] = cited from earlier work; remark: listed apart in the source
[16] = Example 1 follow-up study: radioactivity and metabolites in breast tissue after percutaneous application; conditions: for % Metabolites in Breast Tissue: breast tumor tissue
Description: as §1

[17] = oral tamoxifen group, 20 mg/day

Compound: CCC(=C(c1ccc(O)cc1)c1ccc(OCCN(C)C)cc1)c1ccccc1 [4-hydroxy tamoxifen, 1-[4-(2-N-dimethylaminoethoxy)phenyl]-1-(4-hydroxyphenyl)-2-phenylbut-1-ene]
t1/2 (Range) ([1]; human, topical or ocular): (49 - 101) hr
half-life ([1]; human, topical or ocular, t1/2 (Range)): 58 to 118 h
patients with detectable plasma concentrations (>5 pg/mL) [1]: 6 of 12
laboratory or clinical evidence of systemic effects [2]: no detectable
distribution within breast tissue [3]: concentrated predominantly in the cytosolic and nuclear fractions of breast tissue
metabolism in intracellular sites of breast tissue [3]: remained unmetabolized except for limited isomerization from the Z to the E form
retention in the breast [3]: approximately 4 days
% of radioactivity in blood represented by [4]: 68%
peak urinary elimination [5]: later time
inhibitory effect on estrone sulphatase activity [6]: significant inhibitory effect
4-hydroxy tamoxifen concentration in breast tissue exceeds normal estradiol concentrations in breast tissue by a factor of [7]: 4
Mean ± SD 4-hydroxy tamoxifen (Range), Plasma Concentrations, Day Pre-Surgery [8]: 0 (0 - 0)^a pg/mL
affinity for estrogen receptors [9]: 100 fold
rat liver carcinogen [10]: not

% of radioactivity in blood represented by ([11]; 24 hours after percutaneous administration of [3H]-4-hydroxy tamoxifen): 18%
Compound: CCC(=C(c1ccc(O)cc1)c1ccc(OCCNC)cc1)c1ccccc1 [N-Desmethyl-4-Hydroxy Tamoxifen]

Compound: CC/C(=C(\c1ccc(O)cc1)c1ccc(OCCN(C)C)cc1)c1ccccc1 [Z-4-hydroxy tamoxifen]
inhibits the growth in culture of normal human epithelial breast cells [12]: 100 fold

Compound: CC/C(=C(\c1ccccc1)c1ccc(OCCN(C)C)cc1)c1ccccc1 [[^3H]-tamoxifen, reference compound]
plateau of radioactivity in blood ([11]; percutaneous application): 2 days

Compound: CC/C(=C(\c1ccccc1)c1ccc(OCCN(C)C)cc1)c1ccccc1 [tamoxifen]
inhibitory effect on estrone sulphatase activity [6]: little or no effect
decrease of risk of benign breast disease ([13]; cyst): 34%
decrease of risk of benign breast disease ([13]; duct ectasia): 28%
decrease of risk of benign breast disease ([13]; fibrocystic disease): 33%
decrease of risk of benign breast disease ([13]; hyperplasia): 40%
reduces the risk of developing benign breast disease ([13]; overall): 28%
reduction of the need for breast biopsies ([13]; women under 50): 41%
rat liver carcinogen [10]: potent rat liver carcinogen
initiates apoptosis [14]: initiates apoptosis
side effects reported by one person ([15]; Group 2 (0.5 mg/day gel): seventh day of treatment, Group 1 (oral tamoxifen): fifth day of treatment): hot flashes and mild vaginitis
anti-thrombin III and fibrinogen, pre- versus post treatment [15, 17]: statistically significant decrease
platelet and lymphocyte counts, pre- versus post treatment [15, 17]: statistically significant increase
% Metabolites in Breast Tissue ([16]; Day 4 after percutaneous administration of Z-[3H]-4-hydroxy tamoxifen to the affected breast): <1%
% Metabolites in Breast Tissue ([16]; Day 7 after percutaneous administration of Z-[3H]-4-hydroxy tamoxifen to the affected breast): 2%
retention in the breast ([16]; percutaneous application of [3H]-labeled drug): shorter and far weaker
